Test results taken from US9266876B2 (Actelion Pharmaceuticals Ltd., priority 2012, dated 2016).

Tests used:
tumor cells = conditions: administration of AMG487; Pradelli, E. et al. Int J Cancer 2009, 125, 2586; cited from earlier work
human CXCR3A = human CXCR3A (Homo sapiens (Human), UniProt P49682); experiment: FLIPR assay; assay type: cell-based; conditions: CHO-K1 cells expressing the human CXCR3A coupled to Galpha(16); CXCL10 agonist 20 nM; Fluo-4-AM fluorescence; mean values if determined several times
Chain of human CXCR3A (P49682 whole entry): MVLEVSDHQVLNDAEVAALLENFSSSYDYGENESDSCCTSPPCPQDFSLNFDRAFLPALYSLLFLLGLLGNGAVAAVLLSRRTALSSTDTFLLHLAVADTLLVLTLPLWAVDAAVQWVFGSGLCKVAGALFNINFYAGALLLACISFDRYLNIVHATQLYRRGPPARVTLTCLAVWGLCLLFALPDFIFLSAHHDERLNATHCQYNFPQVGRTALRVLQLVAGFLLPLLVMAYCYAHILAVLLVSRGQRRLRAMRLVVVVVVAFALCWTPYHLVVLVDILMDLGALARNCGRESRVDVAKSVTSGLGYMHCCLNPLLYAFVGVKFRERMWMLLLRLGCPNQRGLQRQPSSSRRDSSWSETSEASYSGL
Summary of the method: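 CHO-K1 cells expressing CXCR3A coupled to Gα16 were loaded with Fluo-4-AM for 1 h in Hepes-buffered HBSS, pH 7.4, with 5 mM probenecid. Compound dilutions were added on the FLIPR, followed by CXCL10 (added as a 20 nM solution). Baseline-subtracted peak fluorescence was fitted to a single-site curve for IC50.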

CXCR3 = CXCR3 (Homo sapiens (Human), UniProt P49682); experiment: Receptor internalization assay; assay type: cell-based; conditions: human whole blood; final CXCL10 concentration 9 nM; 30 min 37° C.; CXCR3 cell surface expression on CD3 positive cells, flow cytometer; read-out: Internalization IC50
Chain of CXCR3 (P49682 whole entry): as above
Summary of the method: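 In human whole blood, compounds were incubated with CXCL10 (9 nM final) for 30 min at 37 °C to drive receptor internalization, then stained with anti-CXCR3/CD3 antibodies and lysed of red cells. Flow cytometry measured mean surface CXCR3 fluorescence on CD3+ cells, and IC50 came from single-site dose-response fits.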

CCOc1ccc(-n2c([C@@H](C)N(Cc3cccnc3)C(=O)Cc3ccc(OC(F)(F)F)cc3)nc3ncccc3c2=O)cc1 [AMG487]
metastasis of tumor cells to the lungs (tumor cells): could limit the metastasis of tumor cells to the lungs

Cc1nc(C)n(CC(=O)N2CCN(c3sc(C(F)(F)F)nc3-c3nc4ccc(C5CCOCC5)cc4[nH]3)C[C@H]2C)n1 [Example 238, 2-(3,5-Dimethyl-[1,2,4]triazol-1-yl)-1-((R)-2-methyl-4-{4-[6-(tetrahydro-pyran-4-yl)-1H-benzoimidazol-2-yl]-2-trifluoromethyl-thiazol-5-yl}-piperazin-1-yl)-ethanone]
IC50 (human CXCR3A): 1 nM
IC50 (CXCR3): 103 nM

Cc1nc(C)n(CC(=O)N2CCN(c3sc(C(F)(F)F)nc3-c3nc4cc(CCN)ccc4[nH]3)C[C@H]2C)n1 [Example 239, 1-((R)-4-{4-[5-(2-Amino-ethyl)-1H-benzoimidazol-2-yl]-2-trifluoromethyl-thiazol-5-yl}-2-methyl-piperazin-1-yl)-2-(3,5-dimethyl-[1,2,4]triazol-1-yl)-ethanone]
IC50 (human CXCR3A): 0.1 nM
IC50 (CXCR3): 324 nM

Cc1nc(C)n(CC(=O)N2CCN(c3sc(C(F)(F)F)nc3-c3nc4ccc(C5CCNCC5)cc4[nH]3)C[C@H]2C)n1 [Example 240, 2-(3,5-Dimethyl-[1,2,4]triazol-1-yl)-1-{(R)-2-methyl-4-[4-(6-piperidin-4-yl-1H-benzoimidazol-2-yl)-2-trifluoromethyl-thiazol-5-yl]-piperazin-1-yl}-ethanone]
IC50 (human CXCR3A): 2 nM
IC50 (CXCR3): 222 nM

Cc1nc(C)n(CC(=O)N2CCN(c3sc(C(F)(F)F)nc3-c3nc4cc(OC(F)(F)F)ccc4[nH]3)C[C@H]2C)n1 [Example 241, 2-(3,5-Dimethyl-[1,2,4]triazol-1-yl)-1-{(R)-2-methyl-4-[4-(5-trifluoromethoxy-1H-benzoimidazol-2-yl)-2-trifluoromethyl-thiazol-5-yl]-piperazin-1-yl}-ethanone]
IC50 (human CXCR3A): 2 nM
IC50 (CXCR3): 169 nM

Cc1nc(C)n(CC(=O)N2CCN(c3sc(C(F)(F)F)nc3-c3nc4ccc(OC5CNC5)cc4[nH]3)C[C@H]2C)n1 [Example 242, 1-((R)-4-{4-[6-(Azetidin-3-yloxy)-1H-benzoimidazol-2-yl]-2-trifluoromethyl-thiazol-5-yl}-2-methyl-piperazin-1-yl)-2-(3,5-dimethyl-[1,2,4]triazol-1-yl)-ethanone]
IC50 (human CXCR3A): 4 nM
IC50 (CXCR3): 438 nM

Cc1nc(C)n(CC(=O)N2CCN(c3sc(C(F)(F)F)nc3-c3nc4ccccc4[nH]3)C[C@@H]2C)n1 [Example 243, 1-{(S)-4-[4-(1H-Benzoimidazol-2-yl)-2-trifluoromethyl-thiazol-5-yl]-2-methyl-piperazin-1-yl}-2-(3,5-dimethyl-[1,2,4]triazol-1-yl)-ethanone]
IC50 (human CXCR3A): 3 nM
IC50 (CXCR3): 1120 nM

Cc1nc(C)n(CC(=O)N2CCN(c3sc(C(F)(F)F)nc3-c3nc4ccc(CCN5CCCC5)cc4[nH]3)C[C@H]2C)n1 [Example 244, 2-(3,5-Dimethyl-[1,2,4]triazol-1-yl)-1-((R)-2-methyl-4-{4-[6-(2-pyrrolidin-1-yl-ethyl)-1H-benzoimidazol-2-yl]-2-trifluoromethyl-thiazol-5-yl}-piperazin-1-yl)-ethanone]
IC50 (human CXCR3A): 23 nM
IC50 (CXCR3): 531 nM
